Experimental data reported in patent publication US20140256790A1, “Methods for Identifying and Compounds Useful for Increasing the Functional Activity and Cell Surface Expression of CF-Associated Mutant Cystic Fibrosis Transmembrance Conductance Regulator” (priority 2008, published 2014).

Key:
ΔF508 CFTR [1] = assay: Trans-epithelial chloride flux (short-circuit current, Ussing chamber) in CFTR ΔF508 homozygous primary bronchial epithelial cells; conditions: primary CF bronchial epithelial cell culture on filter support; Ad-siRNA knockdown; forskolin 10 μM, genistein 50 μM
Description: A further validation of the correction of ΔF508 CFTR is the correction of trans-epithelial chloride transport in primary bronchial epithelial cell cultures from a CF patient, grown in a filter support. […] A standard drug addition protocol (Devor et al., 2000) can be used to detect transepithelial currents due to CFTR. Short-circuit current (Isc) across HBE primary cultures can be measured as described (Myerburg et al., 2006; Myerburg et al., 2008). Cells cultured on filter supports are mounted in modified Ussing chambers, and the cultures are continuously short-circuited with an automatic voltage clamp (Physiological Instruments, San Diego, Calif.). The basolateral bathing solution composition is: 120 mM NaCl, 25 mM NaHCO3, 3.3 mM KH2PO4, 0.8 mM K2HPO4, 1.2 mN MgCl2, 1.2 mM CaCl2, and 10 mM glucose. A basal-to-apical Cl gradient can be imposed by reducing the NaCl concentration of the apical bathing solution by replacing NaCl with equimolar Na-gluconate. The chambers are maintained at 37° C. and gassed continuously with a mixture of 95% O2-5% CO2 which fixed the pH at 7.4. Following a 5 min equilibration period, the baseline Isc is recorded. Sodium currents are blocked by addition of the epithelial sodium channel (ENaC) blocker, amiloride (10 μM), to the apical bath. […]

ΔF508 CFTR [2] = assay: Cell-surface expression of ΔF508 CFTR by cell-surface biotinylation and Western blot in CFBE41o-cells; assay type: cell-based, human
Description: This analysis allows a more quantitative measurement of the levels of restoration of cell-surface expressed ΔF508 CFTR, as well as the glycosylation status of the ΔF508 CFTR protein (Cheng et al., 1990). A preferred effect of a HIT would be increased cell-surface expression of ΔF508 CFTR, and especially “band C” (Cheng et al., 1990), fully glycosylated ΔF508 CFTR. The assay to measure cell surface expression of ΔF508-CFTR is performed in the following fashion: CFBE41o-cells are seeded in 60 mm cell culture dishes coated with 0.1 mg/mL bovine serum albumin (BSA), 0.03 mg/mL bovine collagen type 1 and 0.01 mg/mL human fibronectin. CFBE41o-cells are cultured in MEM containing 10% Fetal Bovine Serum, 2 mM glutamine, 100 IU/mL penicillin, 0.1 mg/mL streptomycine sulfate and 0.5 mg/mL hygromycin B at 37° C., 5% CO2 in a humidified chamber. One day after seeding, an aliquot of the Ad-siRNA is applied to each well. […] The supernatant is analyzed on Western blots (BioRad Criterion XT gels, 3-8% polyacrylamide #3450131). […] Quantification of the cell surface expression of ΔF508 CFTR was performed with Biorad Quantity One software.
Positive and negative controls for the biotinylation include incubation of cell culture at 27° C. for 48 hrs to correct misfolding and trafficking of ΔF508 CFTR, and omission of Ad-siRNAs respectively. No signal is detected when the biotinylation reagent was omitted. […]
Target sequence in this assay (P13569 other isoform, or with tags, fused parts or gaps DEL508-508): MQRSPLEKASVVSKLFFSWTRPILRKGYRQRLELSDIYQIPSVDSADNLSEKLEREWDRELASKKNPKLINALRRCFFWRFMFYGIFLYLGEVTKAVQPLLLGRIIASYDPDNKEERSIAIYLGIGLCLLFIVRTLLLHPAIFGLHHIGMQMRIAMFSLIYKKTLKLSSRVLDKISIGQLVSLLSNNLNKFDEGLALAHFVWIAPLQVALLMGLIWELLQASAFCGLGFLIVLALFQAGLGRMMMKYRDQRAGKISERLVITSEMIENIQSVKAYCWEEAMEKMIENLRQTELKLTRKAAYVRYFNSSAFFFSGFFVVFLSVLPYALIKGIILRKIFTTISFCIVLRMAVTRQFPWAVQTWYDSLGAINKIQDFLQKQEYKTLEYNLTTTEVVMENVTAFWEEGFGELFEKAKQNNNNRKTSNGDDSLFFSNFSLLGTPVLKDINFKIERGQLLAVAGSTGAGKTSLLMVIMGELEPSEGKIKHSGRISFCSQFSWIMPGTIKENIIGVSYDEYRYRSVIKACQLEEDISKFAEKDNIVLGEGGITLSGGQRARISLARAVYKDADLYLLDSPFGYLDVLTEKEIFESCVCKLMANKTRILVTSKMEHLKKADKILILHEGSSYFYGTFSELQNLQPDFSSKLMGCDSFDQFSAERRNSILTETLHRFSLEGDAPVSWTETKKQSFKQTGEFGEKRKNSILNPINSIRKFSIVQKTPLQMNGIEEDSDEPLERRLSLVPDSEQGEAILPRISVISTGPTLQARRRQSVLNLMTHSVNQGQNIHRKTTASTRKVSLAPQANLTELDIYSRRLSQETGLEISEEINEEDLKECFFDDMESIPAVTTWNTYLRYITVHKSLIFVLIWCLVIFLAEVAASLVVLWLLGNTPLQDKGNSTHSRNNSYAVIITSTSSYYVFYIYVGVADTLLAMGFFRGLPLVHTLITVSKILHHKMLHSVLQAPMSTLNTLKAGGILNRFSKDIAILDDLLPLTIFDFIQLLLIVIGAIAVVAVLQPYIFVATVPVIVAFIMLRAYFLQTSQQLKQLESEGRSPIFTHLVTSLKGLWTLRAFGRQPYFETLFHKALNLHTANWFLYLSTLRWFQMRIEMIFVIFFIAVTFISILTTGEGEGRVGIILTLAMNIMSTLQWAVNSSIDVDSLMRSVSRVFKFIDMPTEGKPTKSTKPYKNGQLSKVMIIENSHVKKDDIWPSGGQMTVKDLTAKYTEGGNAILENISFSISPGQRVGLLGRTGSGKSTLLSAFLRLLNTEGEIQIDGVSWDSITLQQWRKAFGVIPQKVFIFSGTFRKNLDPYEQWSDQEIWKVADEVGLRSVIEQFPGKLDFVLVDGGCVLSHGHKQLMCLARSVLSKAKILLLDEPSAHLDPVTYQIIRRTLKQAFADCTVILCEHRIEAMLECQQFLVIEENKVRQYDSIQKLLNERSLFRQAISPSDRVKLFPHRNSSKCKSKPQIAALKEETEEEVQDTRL

ΔF508-CFTR = assay type: cell-based, human; conditions: rescreen with repropagated Ad-siRNA; ΔF508-CFTR and YFP adenovirus; 10 microM forskolin and 100 microM genistein; threshold −2
Sequence of ΔF508-CFTR (P13569 other isoform, or with tags, fused parts or gaps DEL508-508): as above
Description: Accordingly, an assay to monitor CFTR-halide flux by using a reporter protein, halide-sensitive fluorescent protein YFP, is developed to measure the functional activity of CFTR. Cells expressing this reporter protein show enhanced fluorescence quenching of YFP by extracellular isomolar iodide solutions in the presence of activated CFTR. This is caused by the increased flux of iodide across the plasma membrane by CFTR. The fluorescence quenching is measured on a fluorescence plate reader.
Human lung epithelial cells are isolated from a ΔF508-CFTR patient, obtained after informed consent. These cells are stably transfected with ΔF508-CFTR expression plasmids and are named CFBE41o-cells (Gruenert et al., 2004). […]
CFBE41o-cells are transduced with the YFP fluorescent halide reporter adenoviral vector at a VPU of 2000 viral particles per cell, together with adenoviral vectors expressing ΔF508-CFTR, or as a positive control the wild-type CFTR. […] Plates are read in a fluorescent plate reader, equipped with injectors for the delivery of reagents to the well (Perkin-Elmer Envision 2102). Each well is read for 2 seconds at 485/530 nm (excitation/emission) prior to the addition of 110 microliter iodide-containing buffer (137 mM NaI, 2.7 mM KCl, 10 mM Na2HPO4, 1.76 mM KH2PO4 at pH 7.4). Fluorescent reading is continued for an additional 12 sec, sampling every 200 msec. […]

For “UGT3A2: Ad-siRNA (adenovirus-expressed shRNA) knocking down UGT3A2; KD sequences SEQ ID NO: 56, 57; SEQ 57 used in Table 6 (guide AACATGGTCCGAGTAGAAG; listed as Homo sapiens)”, the “Forskolin-Genistein induced chloride flux in CF primary epithelial cells compared to control cells (non-CF)” value (ΔF508 CFTR [1]) was 22.9%, the “CFTRΔF508 cell surface expression” value (ΔF508 CFTR [2]; CFBE41o- cell culture upon TARGET Ad-siRNA, relative to E-cadherin signal, without Ad-siRNAs set at 0, 27° C. for 48 hrs set at 1) was 0.906 and the C-band/B-band ratio (ΔF508 CFTR [2]; cell-surface ΔF508 CFTR, band C fully glycosylated / band B core glycosylated, CFBE41o-) was 0.278. The “Forskolin-Genistein induced halide flux in CFBE41o-” value (ΔF508-CFTR) was −5.485 fold stdev from the mean of the negative controls.
